The values that follow come from patent publication US20110052556A1, “PHARMACEUTICAL COMPOSITION COMPRISING RACETAM AND CARNITINE AND PROCESS FOR ITS PREPARATION” (Biolab Sanus Farmaceutical Ltda, priority 2008, published 2011).

The test system of this assay is mitochondria isolated from liver of rat. The assay is described as follows: Protection against mitochondrial swelling induced by statins. It counts as biochemical. As to the method:
Mitochondria were isolated from adult rat liver (MFR) using the technique of differential centrifugation, according to […] and HOGEBOOM (1951), after a fast of 12 h. The liver, removed after death of the animal by cerebral concussion, was wash in a 250 mM saccharose solution containing buffer 10 mM HEPES pH 7.2 and 0.5 mM EGTA, and chopped with a scissors and homogenized in a Potter-Elvehjem homogeneizer. The material was centrifuged at 2500×g for 10 minutes. The resulting supernatant was centrifuged for 10 minutes at 8000×g. The supernatant was discarded and the sediment resuspended in 250 mM saccharose, 5 mM HEPES pH 7.2, 0.3 mM EGTA, and centrifuged as the previous step. […]
Mitochondrial swelling was calculated based on the decrease in tubidity of a mitochondrial suspension measured at 520 nm in a Hitachi spectrometer model U-3000 for a time period between 0 and 800 seconds.
This procedure of evaluation of mitochondria modification is based on fact that the mitochondria suspensions are turbid and scatter incident light. […] A spectrofotometric measurement of the absorbance reduction at 540 nm (Ca^2+-dependent NAD(P)^+-induced alterations in membrane permeability of the mitochondria. Integration of Mitochondrial Function, Ed. J. Lemasters, Plenum, New York, pp. 535-542) is made in a spectrophotometer connected to a potentiometric recorder. […]

Take `C[N+](C)(C)C[C@H](O)CC(=O)[O-]` [L-carnitine]: the “smallest dose that presented some protective effect on mitochondrial swelling induced by statins” value (swelling induced by Simvastatin, Pravastatin and Lovastatin) is 0.5 µg/mL.
On to `COC1=C(OC)C(=O)C(C/C=C(\C)CC/C=C(\C)CC/C=C(\C)CC/C=C(\C)CC/C=C(\C)CC/C=C(\C)CC/C=C(\C)CC/C=C(\C)CC/C=C(\C)CCC=C(C)C)=C(C)C1=O` [coenzyme Q10, 2,3,dimethoxyl-5-methyl-6-decaprenil-1,4-benzoquinone], for which the “protection against mitochondria swelling induced by Simvastatin” value (MFR 0.5 mg/ml, Piracar 0.25/0.65 μg/ml, CoQ 5 μg/ml, FIG. 5) is recorded as “effect of the addition of coenzyme Q10 in the protection against mitochondria swelling”.
